Laboratory results: US20100137313A1 (ASTRAZENECA AB, priority 2008, published 2010)

Target: S. pneumoniae Topoisomerase IV ATPase (ParE) (Streptococcus pneumoniae serotype 4, UniProt Q59961)
Test: S. pneumoniae Topoisomerase IV ATPase inhibition
Format: biochemical
Details: values marked * are an average of two or more data points, read-out: % Inh (13 μM) of S. pneumoniae Topoisomerase IV ATPase
Method in brief: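 ParE ATPase (1.25 nM) run with 160 μM ATP and 5 μg/ml sheared salmon sperm DNA in Tris pH 8.0, Mg2+, glycerol, DTT, Brij-35. Phosphate released read by malachite green/molybdate absorbance at 650 nm. IC50 from 10 compound concentrations; DMSO (2%) as 0% and EDTA (20 μM) as 100% inhibition.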

Chain of S. pneumoniae Topoisomerase IV ATPase (ParE) (Q59961 whole entry): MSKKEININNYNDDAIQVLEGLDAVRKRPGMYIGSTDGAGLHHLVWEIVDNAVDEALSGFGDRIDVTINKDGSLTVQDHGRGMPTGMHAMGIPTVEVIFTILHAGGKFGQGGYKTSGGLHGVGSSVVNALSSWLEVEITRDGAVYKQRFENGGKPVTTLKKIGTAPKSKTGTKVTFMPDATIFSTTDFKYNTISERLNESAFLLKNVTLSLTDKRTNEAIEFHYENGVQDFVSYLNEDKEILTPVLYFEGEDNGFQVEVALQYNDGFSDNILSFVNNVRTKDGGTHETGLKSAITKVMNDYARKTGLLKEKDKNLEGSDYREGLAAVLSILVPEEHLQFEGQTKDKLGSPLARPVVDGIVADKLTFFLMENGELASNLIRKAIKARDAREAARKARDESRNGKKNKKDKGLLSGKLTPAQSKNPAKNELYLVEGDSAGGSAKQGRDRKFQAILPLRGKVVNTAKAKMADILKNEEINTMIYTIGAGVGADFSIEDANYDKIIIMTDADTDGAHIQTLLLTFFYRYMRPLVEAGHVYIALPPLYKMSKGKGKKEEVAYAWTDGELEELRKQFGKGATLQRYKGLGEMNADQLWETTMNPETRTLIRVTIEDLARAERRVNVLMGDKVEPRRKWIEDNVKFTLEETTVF

Row | Structure (SMILES) | inhibition at 13 µM [%]
1 | COc1ncc(-c2cnc(Nc3ccc(F)c(Cl)c3)nc2-n2ccc(C(F)(F)F)n2)cc1CO [Example 1027, (5-(2-(3-chloro-4-fluorophenylamino)-4-(3-(trifluoromethyl)-1H-pyrazol-1-yl)pryimidin-5-yl)-2-methoxypyridin-3yl)methanol] | 94
2 | COc1cc(Nc2ncc(-c3cncc(C(=O)NCCO)c3)c(-n3ccc(C(F)(F)F)n3)n2)cc(OC)c1 [Example 682, 5-{2-[(3,5-dimethoxyphenyl)amino]-4-[3-(trifluoromethyl)-1H-pyrazol-1-yl]pyrimidin-5-yl}-N-(2-hydroxyethyl)pyridine-3-carboxamide] | 100
3 | Cc1cc(C(F)F)nn1-c1nc(Nc2ccc(F)c(Cl)c2)ncc1-c1cccc(/C=C/C(=O)O)c1 [Example 563, (2E)-3-(3-{2-[(3-chloro-4-fluorophenyl)amino]-4-[3-(difluoromethyl)-5-methyl-1H-pyrazol-1-yl]pyrimidin-5-yl}phenyl)prop-2-enoic acid] | 100
4 | O=C(O)c1cncc(-c2cnc(Nc3ccc(F)c(Cl)c3)nc2NCc2cccnc2)c1 [Example 223, 5-{2-(3-Chloro-4-fluoro-phenylamino)-4-[(pyridin-3-ylmethyl)-amino]-pyrimidin-5-yl}-nicotinic acid] | 77.4
5 | O=C(O)/C=C/c1cccc(-c2cnc(Nc3ccc(F)c(Cl)c3)nc2-n2ccc(C(F)(F)F)n2)c1 [Example 323, (2E)-3-(3-{2-[(3-chloro-4-fluorophenyl)amino]-4-[3-(trifluoromethyl)-1H-pyrazol-1-yl]pyrimidin-5-yl}phenyl)prop-2-enoic acid] | 99.5
6 | Cn1cc(-c2cnc(Nc3ccc(F)c(Cl)c3)nc2-n2ccc(C(F)(F)F)n2)cc(C(=O)O)c1=O [Example 1087, 5-(2-(3-Chloro-4-fluorophenylamino)-4-(3-(trifluoromethyl)-1H-pyrazol-1-yl)pyrimidin-5-yl)-1-methyl-2-oxo-1,2-dihydropyridine-3-carboxylic acid] | 100
7 | COc1cc(Nc2ncc(-c3cncc(C(=O)O)c3)c(-n3ccc(C(F)(F)F)n3)n2)cc(OC)c1 [Example 635, 5-{2-[(3,5-Dimethoxyphenyl)amino]-4-[3-(trifluoromethyl)-1H-pyrazol-1-yl]pyrimidin-5-yl}pyridine-3-carboxylic acid] | 100
8 | COc1cc(C)cc(Nc2ncc(-c3cnc(OC)c(-c4n[nH]c(=O)o4)c3)c(-n3ccc(C(F)(F)F)n3)n2)c1 [Example 1169, 5-(2-methoxy-5-{2-[(3-methoxy-5-methylphenyl)amino]-4-[3-(trifluoromethyl)-1H-pyrazol-1-yl]pyrimidin-5-yl}pyridin-3-yl)-1,3,4-oxadiazol-2(3H)-one] | 100
9 | COC(=O)c1cc(-c2cnc(Nc3ccc(F)c(Cl)c3)nc2-n2nc(C(F)(F)F)cc2C)cnc1OC [Example 1008, Methyl 5-(2-(3-chloro-4-fluorophenylamino)-4-(5-methyl-3-(trifluoromethyl)-1H-pyrazol-1-yl)pyrimidin-5-yl)-2-methoxynicotinate] | 83
10 | CONC(=O)c1cncc(-c2cnc(Nc3ccc(F)c(Cl)c3)nc2-n2nc(C(F)F)cc2C)c1 [Example 546, 5-{2-[(3-chloro-4-fluorophenyl)amino]-4-[3-(difluoromethyl)-5-methyl-1H-pyrazol-1-yl]pyrimidin-5-yl}-N-methoxypyridine-3-carboxamide] | 100
11 | O=C(O)c1cncc(-c2cnc(Nc3ccc(F)c(Br)c3)nc2N2CCOCC2)c1 [Example 443] | 85
12 | CN(C)CCCNc1nc(Nc2ccc(F)c(Cl)c2)ncc1-c1ccc(C(=O)NCc2ccccc2)cc1 [Example 365, N-benzyl-4-(2-(3-chloro-4-fluorophenylamino)-4-(3-(dimethylamino)propylamino)pyrimidin-5-yl) benzamide] | 110
13 | COc1cc(Nc2ncc(-c3cnc(OC)c(C(=O)NS(=O)(=O)c4c(C)nn(C)c4C)c3)c(-n3nc(C(F)(F)F)cc3C)n2)cc(OC)c1 [Example 842, 5-{2-[(3,5-dimethoxyphenyl)amino]-4-[5-methyl-3-(trifluoromethyl)-1H-pyrazol-1-yl]pyrimidin-5-yl}-2-methoxy-N-[(1,3,5-trimethyl-1H-pyrazol-4-yl)sulfonyl]pyridine-3-carboxamide] | 97
14 | O=C(O)c1cc(-c2cnc(Nc3ccc(F)c(Cl)c3)nc2-n2ccc(C(F)(F)F)n2)cnc1OCCN1CCOCC1 [Example 1140, 5-(2-(3-chloro-4-fluorophenylamino)-4-(3-(trifluoromethyl)-1H-pyrazol-1-yl)pyrimidin-5-yl)-2-(2-morpholinoethoxy)nicotinic acid] | 100
15 | CCOC(=O)c1cncc(-c2cnc(Nc3ccc(F)c(Cl)c3)nc2NCCCNC(=O)c2cnc(C)cn2)c1 [Example 141, ethyl 5-(2-(3-chloro-4-fluorophenylamino)-4-(3-(5-methylpyrazine-2-carboxamido)propyl-amino)pyrimidin-5-yl)nicotinate] | 63.3
16 | Nc1cc(C(=O)O)cc(-c2cnc(Nc3ccc(F)c(Cl)c3)nc2N2CCOCC2)c1 [Example 491, 3-amino-5-{2-[(3-chloro-4-fluorophenyl)amino]-4-(morpholin-4-yl)pyrimidin-5-yl}benzoic acid] | 87
17 | O=C(O)c1cncc(-c2cnc(Nc3ccc(F)c(Cl)c3)nc2NCCCN2CCS(=O)(=O)CC2)c1 [Example 232, 5-{2-(3-Chloro-4-fluoro-phenylamino)-4-[3-(1,1-dioxo-1λ^6-thiomorpholin-4-yl)-propylamino]-pyrimidin-5-yl}-nicotinic acid] | 81
18 | CONC(=O)c1cncc(-c2cnc(Nc3cc(OC)cc(OC)c3)nc2-n2ccc(C(F)(F)F)n2)c1 [Example 680, 5-{2-[(3,5-dimethoxyphenyl)amino]-4-[3-(trifluoromethyl)-1H-pyrazol-1-yl]pyrimidin-5-yl}-N-methoxypyridine-3-carboxamide] | 100
19 | CCOC(=O)c1cncc(-c2cnc(Nc3ccc(F)c(Cl)c3)nc2N2CCOC(CO)C2)c1 (centres unmarked) [Example 978, Ethyl 5-(2-(3-chloro-4-fluorophenylamino)-4-(2-(hydroxymethyl)morpholino)pyrimidin-5-yl)nicotinate] | 82
20 | COc1cc(Nc2ncc(-c3cnc(-n4cccn4)c(C(=O)O)c3)c(-n3ccc(C(F)(F)F)n3)n2)cc(OC)c1 [Example 589, 5-(2-(3,5-dimethoxyphenylamino)-4-(3-(trifluoromethyl)-1H-pyrazol-1-yl)pyrimidin-5-yl)-2-(1H-pyrazol-1-yl)nicotinic acid] | 100
21 | COc1cc(Nc2ncc(-c3cnc(OC)c(C(=O)NS(C)(=O)=O)c3)c(-n3nc(C(F)(F)F)cc3C)n2)cc(OC)c1 [Example 909, 5-(2-(3,5-dimethoxyphenylamino)-4-(5-methyl-3-(trifluoromethyl)-1H-pyrazol-1-yl)pyrimidin-5-yl)-2-methoxy-N-(methylsulfonyl)nicotinamide] | 100
22 | O=C(O)/C=C/c1cccc(-c2cnc(Nc3ccc(F)c(Cl)c3)nc2-n2ccnn2)c1 [Example 333, (2E)-3-(3-{2-[(3-chloro-4-fluorophenyl)amino]-4-(1H-1,2,3-triazol-1-yl)pyrimidin-5-yl}phenyl)prop-2-enoic acid] | 69.8
23 | COc1cc(Nc2ncc(-c3cnc(OCCCS(C)(=O)=O)c(C(=O)NS(C)(=O)=O)c3)c(-n3nc(C(F)(F)F)cc3C)n2)cc(OC)c1 [Example 970, 5-(2-(3,5-dimethoxyphenylamino)-4-(5-methyl-3-(trifluoromethyl)-1H-pyrazol-1-yl)pyrimidin-5-yl)-N-(methylsulfonyl)-2-(3-(methylsulfonyl)propoxy)nicotinamide] | 100
24 | Cc1cc(C(F)(F)F)nn1-c1nc(Nc2ccc(F)c(Cl)c2)ncc1-c1cnc(NCCN2CCOCC2)c(C(=O)O)c1 [Example 1078, 5-(2-(3-Chloro-4-fluorophenylamino)-4-(5-methyl-3-(trifluoromethyl)-1H-pyrazol-1-yl)pyrimidin-5-yl)-2-(2-morpholinoethylamino)nicotinic acid] | 100
25 | COc1cc(C)cc(Nc2ncc(-c3cc(C(=O)O)c(=O)n(C)c3)c(-n3ccc(C(F)(F)F)n3)n2)c1 [Example 859, 5-{2-[(3-methoxy-5-methylphenyl)amino]-4-[3-(trifluoromethyl)-1H-pyrazol-1-yl]pyrimidin-5-yl}-1-methyl-2-oxo-1,2-dihydropyridine-3-carboxylic acid] | 100
26 | Fc1ccc(Nc2ncc(-c3cncnc3)c(NCc3cccnc3)n2)cc1Cl [Example 39, N^2-(3-chloro-4-fluorophenyl)-N^4-(pyridin-3-ylmethyl)-5-pyrimidin-5-ylpyrimidine-2,4-diamine] | 63
27 | O=C(O)/C=C/c1cccc(-c2cnc(Nc3cccc4cc[nH]c34)nc2N2CCOCC2)c1 [Example 517, (2E)-3-{3-[2-(1H-indol-7-ylamino)-4-(morpholin-4-yl)pyrimidin-5-yl]phenyl}prop-2-enoic acid] | 100
28 | O=C(O)c1cncc(-c2cnc(Nc3ccc(F)c(Cl)c3)nc2-n2cccc2)c1 [Example 311, 5-{2-[(3-chloro-4-fluorophenyl)amino]-4-(1H-pyrrol-1-yl)pyrimidin-5-yl}pyridine-3-carboxylic acid] | 81.8
29 | CNC(=O)CNC(=O)c1cncc(-c2cnc(Nc3ccc(F)c(Cl)c3)nc2-n2nc(C(F)(F)F)cc2C)c1 [Example 930, 5-(2-(3-chloro-4-fluorophenylamino)-4-(5-methyl-3-(trifluoromethyl)-1H-pyrazol-1-yl)pyrimidin-5-yl)-N-(2-(methylamino)-2-oxoethyl)nicotinamide] | 72
